From patent US20220153766A1, “CONDENSED TRICYCLIC COMPOUND USED AS KINASE INHIBITOR” (Hangzhou Innogate Pharma Co., Ltd., priority 2019, published 2022)

Tests used:
ALK = ALK (Homo sapiens, UniProt Q9UM73); experiment: ALK kinase activity inhibition, Caliper mobility shift assay, method 2; assay type: biochemical; settings: ALK 1.25 nM, ATP 30 μM
Protocol: 2. ALK Kinase Activity Inhibition Experiment:
Method 2: Caliper mobility shift assay was used to measure ALK protein kinase activity. The method is basically the same as method 1, with individual parameters adjusted. The initial concentration of the compound is 1 mM, and sequentially diluted 4-fold to make 6 points (7 points for some individual compounds). Use a dispenser Echo 550 to transfer 250 nL of 100-fold final concentration of the compound to the target plate 3573, add 10 μL ALK with final concentration of 1.25 nM, incubate at room temperature for 10 minutes (the negative control well contains 10 μL kinase buffer and 250 nL 100% DMSO; the positive control well contains 10 μL kinase solution and 250 nL 100% DMSO). On the kinase ALK, add 15 μL of ATP with a final concentration of 30 μM and 3 μM of the substrate peptide No. 22 mixed solution to react for 25 minutes; add 30 μL of stop detection solution containing EDTA to stop the kinase reaction. Use Caliper EZ Reader to read the conversion rate. Inhibition rate %=(Average positive control conversion rate %−Sample conversion rate %/(Average positive control conversion rate %−Average negative control conversion rate %). Among them: negative control wells represent the conversion rate readings without enzyme activity; positive control wells represent the conversion rate readings of wells without compound inhibition. Take the log value of the concentration as the X-axis, and the percentage inhibition rate on the Y-axis. Log (inhibitor) vs. response—Variable slope of analysis software GraphPad Prism 5 was used to fit the curve to obtain the IC50 value of each compound on the enzyme activity. Calculation formula: Y=Bottom+(Top−Bottom)/(1+10^((Log IC50−X)*HillSlope)).

MAP4K1 (HPK1) = MAP4K1 (HPK1) (Homo sapiens, UniProt Q92918); experiment: MAP4K1 (HPK1) kinase activity inhibition, Caliper mobility shift assay; assay type: biochemical; settings: kinase 1.25 nM, ATP 10.1 μM
MAP4K1 (HPK1), sequence (Q92918 whole entry): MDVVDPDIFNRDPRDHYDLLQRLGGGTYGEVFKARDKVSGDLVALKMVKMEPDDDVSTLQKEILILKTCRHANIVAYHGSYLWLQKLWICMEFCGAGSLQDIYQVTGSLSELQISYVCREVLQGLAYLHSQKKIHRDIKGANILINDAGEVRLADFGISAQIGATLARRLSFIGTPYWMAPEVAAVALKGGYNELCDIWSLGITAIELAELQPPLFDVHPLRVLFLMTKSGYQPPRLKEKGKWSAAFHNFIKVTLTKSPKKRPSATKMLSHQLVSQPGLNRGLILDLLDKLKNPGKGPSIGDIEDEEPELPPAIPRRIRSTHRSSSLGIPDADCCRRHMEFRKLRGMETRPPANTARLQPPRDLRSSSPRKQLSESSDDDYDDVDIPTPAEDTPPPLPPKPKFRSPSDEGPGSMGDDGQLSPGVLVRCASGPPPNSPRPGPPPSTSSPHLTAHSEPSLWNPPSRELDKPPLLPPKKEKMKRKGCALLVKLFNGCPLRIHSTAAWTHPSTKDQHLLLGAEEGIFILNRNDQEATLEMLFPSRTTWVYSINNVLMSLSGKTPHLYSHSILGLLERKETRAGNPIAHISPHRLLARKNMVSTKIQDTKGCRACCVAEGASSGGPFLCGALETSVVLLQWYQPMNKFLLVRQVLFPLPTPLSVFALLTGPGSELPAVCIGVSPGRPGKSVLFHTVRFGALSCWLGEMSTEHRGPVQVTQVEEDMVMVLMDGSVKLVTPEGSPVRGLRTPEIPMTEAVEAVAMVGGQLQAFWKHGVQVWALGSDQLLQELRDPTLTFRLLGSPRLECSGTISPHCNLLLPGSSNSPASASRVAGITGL
Method in brief: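 HPK1 kinase at 1.25 nM final preincubated 10 min at room temperature with compound (5 points, 5-fold dilutions from 500 nM), then reacted 120 min with 10.1 μM ATP and 3 μM substrate peptide No. 25. EDTA stop; mobility-shift conversion read, IC50 from variable-slope four-parameter fit of % inhibition.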

[1] = target: Ba/F3_EGFR del19/T790M/C797S cells (Homo sapiens, UniProt P00533, T790M/C797S, cells depend on it, form not given); experiment: Ba/F3_EGFR (del19-T790M-C797S) cell proliferation inhibition, CTG, method 2; assay type: cell-based; settings: 2000 cells/well, 72 h, read-out: Ba/F3_EGFR (del19-T790M-C797S) cell proliferation inhibition (IC50 value) Method 2
Ba/F3_EGFR del19/T790M/C797S cells, sequence (P00533 with tags, fused parts or gaps DEL746-750/T790M/C797S, form open): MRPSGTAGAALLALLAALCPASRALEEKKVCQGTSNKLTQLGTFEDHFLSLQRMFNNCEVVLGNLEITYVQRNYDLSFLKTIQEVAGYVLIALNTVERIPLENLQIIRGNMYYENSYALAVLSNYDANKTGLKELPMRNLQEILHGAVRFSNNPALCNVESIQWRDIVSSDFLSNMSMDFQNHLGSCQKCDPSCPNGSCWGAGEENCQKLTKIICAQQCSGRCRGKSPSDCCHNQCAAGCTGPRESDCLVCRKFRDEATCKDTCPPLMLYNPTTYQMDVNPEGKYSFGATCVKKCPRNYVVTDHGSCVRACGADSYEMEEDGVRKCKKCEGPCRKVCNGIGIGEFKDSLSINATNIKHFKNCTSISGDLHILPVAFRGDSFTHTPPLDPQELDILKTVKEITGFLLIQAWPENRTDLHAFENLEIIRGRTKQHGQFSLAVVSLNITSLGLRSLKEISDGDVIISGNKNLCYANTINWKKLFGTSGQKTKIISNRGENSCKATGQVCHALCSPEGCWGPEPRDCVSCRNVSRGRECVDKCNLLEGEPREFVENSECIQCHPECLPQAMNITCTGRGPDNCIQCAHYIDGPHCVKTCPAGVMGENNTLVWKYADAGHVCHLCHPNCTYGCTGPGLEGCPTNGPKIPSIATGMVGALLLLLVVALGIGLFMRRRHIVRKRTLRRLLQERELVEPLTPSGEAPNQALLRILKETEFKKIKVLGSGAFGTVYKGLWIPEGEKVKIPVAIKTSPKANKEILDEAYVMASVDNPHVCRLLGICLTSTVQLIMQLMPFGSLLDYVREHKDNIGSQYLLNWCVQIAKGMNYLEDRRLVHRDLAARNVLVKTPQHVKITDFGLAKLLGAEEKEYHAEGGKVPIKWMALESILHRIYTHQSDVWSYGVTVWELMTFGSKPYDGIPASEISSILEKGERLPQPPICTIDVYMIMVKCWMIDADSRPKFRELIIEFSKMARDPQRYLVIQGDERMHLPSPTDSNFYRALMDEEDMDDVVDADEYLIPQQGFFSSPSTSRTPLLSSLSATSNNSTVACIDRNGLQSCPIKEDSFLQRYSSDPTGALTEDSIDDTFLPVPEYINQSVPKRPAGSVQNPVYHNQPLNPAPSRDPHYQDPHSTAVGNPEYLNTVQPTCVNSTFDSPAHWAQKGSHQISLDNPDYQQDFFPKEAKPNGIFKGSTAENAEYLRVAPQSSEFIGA
Protocol: Take a small amount of cells and count them with ViCell. 2) Adjust the cell density, inoculate the cells in a 384-well plate at 2000/well, and incubate in a 37° C., 5% CO2 incubator for 4 hours. 3) Set up the program of Tecan HP D300, add the compound to the well plate. The maximum initial concentration of the compound is 1-4 μM, 3 folds dilution, 9 concentrations, and the DMSO content in each well is unified to 0.2%.
CTG method detection: 1) Take out the CTG reagent and cell plate and equilibrate at room temperature for 30 min, add 25 μL CTG to each well, shake at medium speed for 2 min, centrifuge at 1000 rpm for 1 minutes, and stand still at room temperature for 10 minutes. 2) Envision instrument reads the chemiluminescence signal value.
Data analysis: IC50 results are analyzed by IDBS's XL-fit 5.0 software.

[2] = Pharmacokinetic study in rats after intragastrical administration; assay type: in vivo; settings: male, rat, plasma, po, SD rats, 3 mg/kg

ALK, sequence (Q9UM73 19-1620): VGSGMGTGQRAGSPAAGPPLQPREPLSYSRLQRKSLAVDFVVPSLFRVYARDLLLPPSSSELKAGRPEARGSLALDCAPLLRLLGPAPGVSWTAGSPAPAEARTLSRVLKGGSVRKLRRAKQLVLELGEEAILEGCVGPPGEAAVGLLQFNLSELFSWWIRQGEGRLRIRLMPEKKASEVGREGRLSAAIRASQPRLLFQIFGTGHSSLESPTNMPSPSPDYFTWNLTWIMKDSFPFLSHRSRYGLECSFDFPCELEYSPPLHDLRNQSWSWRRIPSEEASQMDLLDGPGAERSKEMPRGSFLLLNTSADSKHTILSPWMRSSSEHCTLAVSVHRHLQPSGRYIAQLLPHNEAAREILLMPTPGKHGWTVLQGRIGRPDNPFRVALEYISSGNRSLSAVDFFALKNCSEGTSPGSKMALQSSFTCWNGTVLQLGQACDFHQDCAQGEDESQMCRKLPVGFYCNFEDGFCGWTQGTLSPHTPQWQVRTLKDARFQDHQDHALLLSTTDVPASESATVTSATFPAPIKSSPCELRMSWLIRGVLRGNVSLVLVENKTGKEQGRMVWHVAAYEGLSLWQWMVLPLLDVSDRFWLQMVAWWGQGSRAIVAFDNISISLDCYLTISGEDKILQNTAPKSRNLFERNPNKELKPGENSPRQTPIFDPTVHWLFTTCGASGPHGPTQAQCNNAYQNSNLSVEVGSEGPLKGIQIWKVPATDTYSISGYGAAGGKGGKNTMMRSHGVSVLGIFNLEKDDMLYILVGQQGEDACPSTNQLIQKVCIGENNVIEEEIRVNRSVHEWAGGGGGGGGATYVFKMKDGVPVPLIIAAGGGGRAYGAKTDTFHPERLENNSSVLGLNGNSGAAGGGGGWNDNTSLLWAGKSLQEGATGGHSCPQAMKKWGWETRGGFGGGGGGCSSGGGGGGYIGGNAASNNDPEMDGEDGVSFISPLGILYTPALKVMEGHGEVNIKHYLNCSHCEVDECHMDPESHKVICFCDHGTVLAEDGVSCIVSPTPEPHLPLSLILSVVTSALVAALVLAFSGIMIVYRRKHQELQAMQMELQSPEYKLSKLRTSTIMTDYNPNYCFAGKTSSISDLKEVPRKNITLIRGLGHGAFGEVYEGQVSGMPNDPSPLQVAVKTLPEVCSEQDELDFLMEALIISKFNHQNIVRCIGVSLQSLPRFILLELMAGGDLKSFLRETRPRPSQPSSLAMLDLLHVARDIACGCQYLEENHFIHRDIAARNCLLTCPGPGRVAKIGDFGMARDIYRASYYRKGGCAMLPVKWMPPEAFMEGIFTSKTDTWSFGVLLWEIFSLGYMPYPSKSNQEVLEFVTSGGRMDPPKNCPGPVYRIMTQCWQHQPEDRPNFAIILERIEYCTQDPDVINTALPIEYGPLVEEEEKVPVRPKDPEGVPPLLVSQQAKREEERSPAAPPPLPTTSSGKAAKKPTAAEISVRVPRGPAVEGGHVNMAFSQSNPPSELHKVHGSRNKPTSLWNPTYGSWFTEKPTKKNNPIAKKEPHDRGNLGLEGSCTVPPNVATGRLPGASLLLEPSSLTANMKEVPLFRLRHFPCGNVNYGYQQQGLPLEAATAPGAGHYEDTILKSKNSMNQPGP

- IC50 (ALK): 1 to 50 nM
- IC50 (MAP4K1 (HPK1)): ≤ 1 nM
- GI50 [1]: < 20 nM
- Cmax [2]: 196 ng/mL
- Tmax [2]: 5.33 h
- half-life [2]: 5.17 h
- AUC(0-t) ([2]; read-out: AUC0-24 h): 2750 ng·h/mL
SMILES: Cc1cc(Nc2ncc(Cl)c(Nc3ccccc3P(C)(C)=O)n2)cc2c1N1CCN(C3CCN(C)CC3)C[C@@H]1CO2 [Compound 27R]
